Data published in ChEMBL document CHEMBL4811220, “Investigation of the in vitro and in vivo efficacy of peptoid-based HDAC inhibitors with dual-stage antiplasmodial activity” (Eur J Med Chem, 2021).
The source made the active and inactive calls. The rule behind the calls is not given here.

What was measured:
Plasmodium berghei [1] = assay: (§1) Antimalarial activity against Plasmodium berghei QIMR infected in BALB/c mouse assessed as reduction in peripheral blood parasitemia at 10 mg/kg, po qd for 4 days starting from 2 hrs post-infection and measured on 4 to 6 days post-infection by Giemsa staining based microscopic analysis relative to control; conditions: read-out: INH
[2] = Half life in human liver microsomes measured upto 40 mins by LC-MS/MS analysis; type: ADME, Microsome
[3] = Intrinsic clearance in human liver microsomes measured upto 40 mins by LC-MS/MS analysis; type: ADME, Microsome; conditions: read-out: CLH
Plasmodium berghei [4] = assay: microbe, parasite or virus in culture; type: functional, organism-based
Histone deacetylase 1 = Histone deacetylase 1 (Homo sapiens, UniProt Q13547)
Sequence of Histone deacetylase 1 (Q13547 whole entry): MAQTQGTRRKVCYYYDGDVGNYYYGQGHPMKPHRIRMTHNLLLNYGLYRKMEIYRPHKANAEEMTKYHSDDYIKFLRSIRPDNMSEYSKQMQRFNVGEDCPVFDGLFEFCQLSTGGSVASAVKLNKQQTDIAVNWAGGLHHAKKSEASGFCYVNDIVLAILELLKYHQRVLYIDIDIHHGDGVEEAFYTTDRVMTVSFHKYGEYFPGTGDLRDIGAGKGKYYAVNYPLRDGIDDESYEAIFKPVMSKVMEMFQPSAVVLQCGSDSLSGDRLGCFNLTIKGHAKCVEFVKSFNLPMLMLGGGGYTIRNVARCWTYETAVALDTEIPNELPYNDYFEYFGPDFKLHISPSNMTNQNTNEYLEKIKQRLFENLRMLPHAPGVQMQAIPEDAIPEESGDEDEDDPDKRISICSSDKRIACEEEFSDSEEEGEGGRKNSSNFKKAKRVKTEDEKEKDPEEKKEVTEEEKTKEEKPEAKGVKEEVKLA
Description: Inhibition of C-terminal FLAG/His-tagged human recombinant HDAC1 (1 to 482 residues) expressed in baculovirus infected Sf9 cells using ZMAL (Z-Lys(Ac)-AMC) as fluorogenic substrate incubated for 90 mins by fluorescence based assay

HepG2 = assay: Cytotoxicity against human HepG2-A16-CD81EGFP cells assessed as inhibition of cell growth incubated for 24 hrs followed by medium transfer and incubation in multimode plate for 48 hrs by CellTiterGlo reagent based luminescence assay
[5] = Selectivity index, ratio of IC50 for cytotoxicity against human HepG2-A16-CD81EGFP cells to IC50 for antiplasmodial activity against drug-sensitive asexual intraerythrocytic stage of Plasmodium falciparum 3D7 infected in human O+ erythrocytes
[6] = Selective index, ratio of IC50 for human HepG2-A16-CD81EGFP cells to IC50 for antiplasmodial activity against liver stage exo-erythrocytic forms of Plasmodium berghei sporozoites infected in human HepG2-A16-CD81EGFP cells
[7] = biological target: T1, Protein deacetylase HDAC6 (Homo sapiens, UniProt Q9UBN7); assay: biochemical
T1 sequence (Q9UBN7 whole entry): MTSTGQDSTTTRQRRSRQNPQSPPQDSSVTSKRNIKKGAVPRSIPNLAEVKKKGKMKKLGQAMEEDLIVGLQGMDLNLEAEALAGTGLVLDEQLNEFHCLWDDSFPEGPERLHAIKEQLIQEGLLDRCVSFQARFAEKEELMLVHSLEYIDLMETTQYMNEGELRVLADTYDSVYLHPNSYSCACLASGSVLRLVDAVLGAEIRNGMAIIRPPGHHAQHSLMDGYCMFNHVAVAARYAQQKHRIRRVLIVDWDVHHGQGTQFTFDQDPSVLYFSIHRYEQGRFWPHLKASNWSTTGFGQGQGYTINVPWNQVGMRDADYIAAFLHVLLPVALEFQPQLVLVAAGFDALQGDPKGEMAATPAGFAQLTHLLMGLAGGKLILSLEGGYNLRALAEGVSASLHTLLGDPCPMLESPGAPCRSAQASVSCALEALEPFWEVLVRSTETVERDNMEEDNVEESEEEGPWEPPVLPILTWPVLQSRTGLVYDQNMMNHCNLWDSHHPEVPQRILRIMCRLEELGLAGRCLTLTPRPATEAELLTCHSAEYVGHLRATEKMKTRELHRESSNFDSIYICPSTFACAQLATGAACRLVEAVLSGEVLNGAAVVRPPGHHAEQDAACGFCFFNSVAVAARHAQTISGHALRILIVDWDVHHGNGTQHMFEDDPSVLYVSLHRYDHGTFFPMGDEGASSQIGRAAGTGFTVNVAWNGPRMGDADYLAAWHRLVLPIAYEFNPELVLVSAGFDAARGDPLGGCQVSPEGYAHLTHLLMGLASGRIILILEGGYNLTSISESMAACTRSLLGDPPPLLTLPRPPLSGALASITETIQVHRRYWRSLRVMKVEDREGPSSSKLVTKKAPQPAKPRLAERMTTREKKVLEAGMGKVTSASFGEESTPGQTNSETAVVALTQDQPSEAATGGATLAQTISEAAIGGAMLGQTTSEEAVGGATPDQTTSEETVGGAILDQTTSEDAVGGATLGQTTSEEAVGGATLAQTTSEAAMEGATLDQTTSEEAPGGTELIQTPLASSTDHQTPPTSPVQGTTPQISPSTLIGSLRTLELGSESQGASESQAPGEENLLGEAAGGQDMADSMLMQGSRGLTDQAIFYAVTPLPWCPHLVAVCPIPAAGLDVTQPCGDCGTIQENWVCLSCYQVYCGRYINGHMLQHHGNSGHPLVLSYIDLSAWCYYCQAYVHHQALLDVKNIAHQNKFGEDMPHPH
Description: Inhibition of N-terminal GST-tagged full length human recombinant HDAC6 expressed in baculovirus infected Sf9 cells using ZMAL (Z-Lys(Ac)-AMC) fluorogenic substrate incubated for 90 mins by fluorescence based assay

Plasmodium falciparum [8] = assay: microbe, parasite or virus in culture; type: functional, organism-based; conditions: 3D7, Erythrocyte
Plasmodium falciparum [9] = assay: Resistance index, ratio of IC50 for antiplasmodial activity against multidrug-resistant asexual intraerythrocytic stage of Plasmodium falciparum Dd2 to IC50 for antiplasmodial activity against drug-sensitive asexual intraerythrocytic stage of Plasmodium falciparum 3D7 infected in human O+ erythrocytes by [3H]-hypoxanthine incorporation assay; type: functional
[10] = test system: Plasmodium falciparum 3D7; assay: Inhibition of HDAC in trophozite-stage of Plasmodium falciparum 3D7 infected in erythrocytes assessed as hyperacetylation of histone H4 at lysine residue at 5 x IC50 incubated for 3 hrs by western blot analysis; type: cell-based
Plasmodium berghei [11] = assay: as §1, with “at 25” for “at 10”, “po bid” for “po qd”, “hrs post infection” for “hrs post-infection”; type: functional; conditions: time 4-6 day
[12] = Half life in mouse liver microsomes measured upto 40 mins by LC-MS/MS analysis
[13] = Intrinsic clearance in mouse liver microsomes measured upto 40 mins by LC-MS/MS analysis
Plasmodium falciparum [14] = assay: Antiplasmodial activity against multidrug-resistant asexual intraerythrocytic stage of Plasmodium falciparum Dd2 assessed as inhibition of parasite growth incubated for 48 hrs followed by addition of [3H]hypoxanthine for 24 hrs by [3H]hypoxanthine incorporation assay; type: functional, organism-based
[15] = Selectivity index, ratio of IC50 for cytotoxicity against human HepG2-A16-CD81EGFP cells to IC50 for antiplasmodial activity against multidrug-resistant asexual intraerythrocytic stage of Plasmodium falciparum Dd2; type: toxicity, cell-based; conditions: read-out: Ratio IC50
[16] = test system: Plasmodium falciparum 3D7; assay: Inhibition of HDAC in trophozite-stage of Plasmodium falciparum 3D7 infected in erythrocytes assessed as hyperacetylation of histone H4 at lysine residue at 5 x IC50 incubated for 3 hrs by western blot analysis relative to control; type: cell-based

SMILES | half-life at 40 min ([12]; microsomes) [min] | inhibition in vivo at 10 mg/kg/day (Plasmodium berghei [1]) [%] | half-life [2] [min] | microsomal CLint [3] [µL/min/mg] | IC50 (Plasmodium berghei [4]) [nM] | IC50 (Histone deacetylase 1) [nM] | IC50 (HepG2) [nM] | selectivity ratio [5] | selectivity ratio [6] | IC50 [7] [nM] | IC50 (Plasmodium falciparum [8]) [nM] | Ratio IC50 (Plasmodium falciparum [9]) | inhibition [10] | inhibition in vivo at 25 mg/kg (Plasmodium berghei [11]) [%] | half-life at 40 min ([12]; liver microsomes) [min] | microsomal CLint at 40 min [13] [µL/min/mg] | IC50 (Plasmodium falciparum [14]) [nM] | selectivity ratio [15] | fold change (FC) [16]
CCN(CC)CCCC(C)Nc1ccnc2cc(Cl)ccc12 (stereo unspecified) [CHLOROQUINE] | – | 100 | – | – | – | – | – | – | – | – | – | – | – | – | – | – | – | – | –
Cn1c(=O)c2c(ncn2C)n(C)c1=O [CAFFEINE] | – | – | 1030 | 2 | – | – | – | – | – | – | – | – | – | – | – | – | – | – | –
Cc1cc(C)cc(C(=O)N(CC(=O)N2CCCCC2)Cc2ccc(C(=O)NO)cc2)c1 | – | – | – | – | 6560 | 4050 | 35000 | 69 | 5 | 130 | 509 | – | – | – | – | – | – | – | –
Cc1ccc(C(=O)N(CC(=O)NC2CCCCC2)Cc2ccc(C(=O)NO)cc2)c(C)c1 | – | – | 12.2 | 139 | 60 | 260 | 8330 | 1040 | 139 | 40 | 8 | 0.5 | inactive | 31 | 17.9 | 94 | 4 | – | –
CNC(=O)CN(Cc1ccc(C(=O)NO)cc1)C(=O)c1ccc(C(C)C)cc1 | – | – | 347 | 5 | 480 | 100 | 9160 | 573 | 19 | 60 | 16 | 0.1 | Active | 33.3 | 271 | 6 | 2 | 4580 | –
Cc1ccccc1C(=O)N(CC(=O)NC12CC3CC(CC(C3)C1)C2)Cc1ccc(C(=O)NO)cc1 | – | – | – | – | 540 | 100 | 13000 | 102 | 24 | 30 | 127 | – | – | – | – | – | – | – | –
O=C(CN(Cc1ccc(C(=O)NO)cc1)C(=O)Cc1ccccc1)NCc1ccccc1 | – | – | – | – | 920 | 600 | 21900 | 103 | 24 | 30 | 213 | – | – | – | – | – | – | – | –
Cc1ccc(C(=O)N(CC(=O)NCc2ccccc2)Cc2ccc(C(=O)NO)cc2)c(C)c1 | – | – | 19.7 | 86 | 160 | 60 | 3710 | 155 | 23 | 60 | 24 | 0.1 | – | 17.6 | 44.8 | 38 | 3 | – | 2
Cc1ccccc1C(=O)N(CC(=O)NCc1ccccc1)Cc1ccc(C(=O)NO)cc1 | – | – | – | – | 300 | 280 | 9620 | 137 | 32 | 30 | 70 | 0.3 | – | – | – | – | 21 | – | 2
CC(C)NCC(O)COc1cccc2ccccc12 (stereo unspecified) [PROPRANOLOL] | 54.3 | – | – | – | – | – | – | – | – | – | – | – | – | – | – | – | – | – | –
CC(C)c1ccc(CC(=O)N(CC(=O)NC2CCCCC2)Cc2ccc(C(=O)NO)cc2)cc1 | – | – | – | – | 2020 | 2030 | 25100 | 117 | 12 | 40 | 215 | – | – | – | – | – | – | – | –
CC(C)c1ccc(C(=O)N(Cc2ccc(C(=O)NO)cc2)C(C)(C)C(=O)NCc2ccccc2)cc1 | – | – | – | – | 8670 | 280 | > 50000 | > 352 | > 6 | 60 | 142 | – | – | – | – | – | – | – | –
O=C(CN(Cc1ccc(C(=O)NO)cc1)C(=O)c1cccc2ccccc12)NCc1ccccc1 | – | – | 41.4 | 41 | 630 | 130 | 12800 | 376 | 20 | 10 | 34 | 0.4 | Active | 25.9 | 19.3 | 87 | 14 | – | –
CC(C)c1ccc(NC(=O)CN(Cc2ccc(C(=O)NO)cc2)C(=O)Cc2ccccc2)cc1 | – | – | 23.5 | 72 | – | – | – | – | – | – | – | – | – | – | 44.3 | 38 | – | – | –
CC(C)c1ccc(C(=O)N(CC(=O)NC23CC4CC(CC(C4)C2)C3)Cc2ccc(C(=O)NO)cc2)cc1 | – | – | – | – | 340 | 300 | 4320 | 154 | 13 | 250 | 28 | 0.2 | – | – | – | – | 6 | – | –
CC(C)c1ccc(CC(=O)N(CC(=O)NCc2ccccc2)Cc2ccc(C(=O)NO)cc2)cc1 | – | – | – | – | 2700 | 780 | 30000 | 395 | 11 | 20 | 76 | 0.3 | Active | – | – | – | 23 | – | –
O=C(O)Cc1ccccc1Nc1c(Cl)cccc1Cl [DICLOFENAC] | – | – | 6.8 | 248 | – | – | – | – | – | – | – | – | – | – | – | – | – | – | –
CC(C)c1ccc(C(=O)N(Cc2ccc(C(=O)NO)cc2)C(C)(C)C(=O)NC2CCCCC2)cc1 | – | – | 11.7 | 144 | 4900 | 970 | > 50000 | > 495 | > 10 | 270 | 101 | 0.3 | inactive | 0.5 | 55.6 | 30 | 33 | – | –
CN(C)c1ccc(C(=O)N(Cc2ccc(C(=O)NO)cc2)C(C)(C)C(=O)NCc2ccccc2)cc1 | – | – | – | – | 4270 | 440 | > 50000 | > 311 | > 12 | 70 | 161 | – | – | – | – | – | – | – | –
O=C(CN(Cc1ccc(C(=O)NO)cc1)C(=O)Cc1ccccc1)NC1CCCCC1 | – | – | – | – | 820 | 2430 | > 50000 | > 178 | > 61 | 50 | 281 | – | – | – | – | – | – | – | –
O=C(CCCCCCC(=O)Nc1ccccc1)NO [VORINOSTAT] | – | – | – | – | – | – | 7600 | – | – | – | – | – | – | – | – | – | – | – | –
Cc1cc(C)cc(C(=O)N(CC(=O)N(C)C)Cc2ccc(C(=O)NO)cc2)c1 | – | – | – | – | 8250 | 8000 | > 50000 | > 48 | – | 230 | 1040 | – | – | – | – | – | – | – | –
